Laboratory results as given in ChEMBL document CHEMBL3885881, “DrugMatrix”.

Organism: Rattus norvegicus
Test: DrugMatrix - Regimen: Daily Repeat
Format: toxicity, organism-based, Sprague-Dawley
Parameters: regimen Daily Repeat, gender Male, age 6-8 weeks
Details: in vivo, po, route oral GAVAGE, vehicle 100 % WATER; for ABSOLUTE BASOPHIL / ABSOLUTE EOSINOPHIL / ABSOLUTE LYMPHOCYTE / ABSOLUTE MONOCYTE / ABSOLUTE SEGMENTED NEUTROPHIL / BASOPHIL / EOSINOPHIL / ERYTHROCYTE COUNT / HEMATOCRIT / HEMOGLOBIN / LEUKOCYTE COUNT / LYMPHOCYTE / MEAN CORPUSCULAR HEMOGLOBIN / MEAN CORPUSCULAR HEMOGLOBIN CONCENTRATION / MEAN CORPUSCULAR VOLUME / MONOCYTE / NEUTROPHIL / NUCLEATED RED BLOOD CELLS / PLATELET COUNT: tissue Blood; for ALANINE AMINOTRANSFERASE / ALBUMIN / ALKALINE PHOSPHATASE / ASPARTATE AMINOTRANSFERASE / BLOOD UREA NITROGEN / CARBON DIOXIDE / CHLORIDE / CHOLESTEROL / CREATINE PHOSPHOKINASE / CREATININE / GLUCOSE / LACTATE DEHYDROGENASE / LIPASE / PHOSPHORUS / POTASSIUM / SODIUM / TOTAL BILIRUBIN / TOTAL PROTEIN / URIC ACID: tissue Plasma
[1] = 100 mg/kg, 72 h, dose level Low, time 3 day
[2] = 100 mg/kg, 120 h, dose level Low, time 5 day
[3] = 2000 mg/kg, 72 h, dose level High, time 3 day
[4] = 2000 mg/kg, 120 h, dose level High, time 5 day

O=C1O[C@H]([C@@H](O)CO)C(O)=C1O [ASCORBIC ACID]
ABSOLUTE BASOPHIL [1]: 0 CELLS/uL | ABSOLUTE EOSINOPHIL [1]: 27 CELLS/uL | ABSOLUTE LYMPHOCYTE [1]: 7261.67 CELLS/uL | ABSOLUTE MONOCYTE [1]: 27 CELLS/uL | ABSOLUTE SEGMENTED NEUTROPHIL [1]: 717.67 CELLS/uL | BASOPHIL [1]: 0% | EOSINOPHIL [1]: 0.33% | ERYTHROCYTE COUNT [1]: 4.91 x10E6/uL | HEMATOCRIT [1]: 32.13% | HEMOGLOBIN [1]: 13.13 G/DL | LEUKOCYTE COUNT [1]: 8.03 x10E3/uL | LYMPHOCYTE [1]: 89% | MEAN CORPUSCULAR HEMOGLOBIN [1]: 26.8 pg | MEAN CORPUSCULAR HEMOGLOBIN CONCENTRATION [1]: 40.87 G/DL | MEAN CORPUSCULAR VOLUME [1]: 65.43 fL | MONOCYTE [1]: 0.33% | NEUTROPHIL [1]: 10.33% | NUCLEATED RED BLOOD CELLS [1]: 0.33 /100WBC | PLATELET COUNT [1]: 954.33 x10E3/uL | ALANINE AMINOTRANSFERASE [1]: 50 u/L | ALBUMIN [1]: 4.53 G/DL | ALKALINE PHOSPHATASE [1]: 454.67 u/L | ASPARTATE AMINOTRANSFERASE [1]: 87 u/L | BLOOD UREA NITROGEN [1]: 15 mg/dL | CARBON DIOXIDE [1]: 32.33 mmol/L | CHLORIDE [1]: 101 MEQ/L | CHOLESTEROL [1]: 78.33 mg/dL | CREATINE PHOSPHOKINASE [1]: 273 u/L | CREATININE [1]: 0.25 mg/dL | GLUCOSE [1]: 121.33 mg/dL | LACTATE DEHYDROGENASE [1]: 148.67 u/L | LIPASE [1]: 9.67 u/L | PHOSPHORUS [1]: 12.13 mg/dL | POTASSIUM [1]: 7.25 MEQ/L | SODIUM [1]: 146.63 MEQ/L | TOTAL BILIRUBIN [1]: 0.23 mg/dL | TOTAL PROTEIN [1]: 6.33 G/DL | URIC ACID [1]: 1.07 mg/dL | ABSOLUTE BASOPHIL [2]: 0 CELLS/uL | ABSOLUTE EOSINOPHIL [2]: 0 CELLS/uL | ABSOLUTE LYMPHOCYTE [2]: 12684.67 CELLS/uL | ABSOLUTE MONOCYTE [2]: 119.33 CELLS/uL | ABSOLUTE SEGMENTED NEUTROPHIL [2]: 1596 CELLS/uL | BASOPHIL [2]: 0% | EOSINOPHIL [2]: 0% | ERYTHROCYTE COUNT [2]: 5.44 x10E6/uL | HEMATOCRIT [2]: 34.63% | HEMOGLOBIN [2]: 13.63 G/DL | LEUKOCYTE COUNT [2]: 14.4 x10E3/uL | LYMPHOCYTE [2]: 88.33% | MEAN CORPUSCULAR HEMOGLOBIN [2]: 25.07 pg | MEAN CORPUSCULAR HEMOGLOBIN CONCENTRATION [2]: 39.4 G/DL | MEAN CORPUSCULAR VOLUME [2]: 63.67 fL | MONOCYTE [2]: 1% | NEUTROPHIL [2]: 10.67% | NUCLEATED RED BLOOD CELLS [2]: 0 /100WBC | PLATELET COUNT [2]: 1152.33 x10E3/uL | ALANINE AMINOTRANSFERASE [2]: 51.67 u/L | ALBUMIN [2]: 4.3 G/DL | ALKALINE PHOSPHATASE [2]: 417 u/L | ASPARTATE AMINOTRANSFERASE [2]: 79 u/L | BLOOD UREA NITROGEN [2]: 17 mg/dL | CARBON DIOXIDE [2]: 33.33 mmol/L | CHLORIDE [2]: 103 MEQ/L | CHOLESTEROL [2]: 73 mg/dL | CREATINE PHOSPHOKINASE [2]: 142.33 u/L | CREATININE [2]: 0.2 mg/dL | GLUCOSE [2]: 152.67 mg/dL | LACTATE DEHYDROGENASE [2]: 82.33 u/L | LIPASE [2]: 8.33 u/L | PHOSPHORUS [2]: 12.97 mg/dL | POTASSIUM [2]: 6.73 MEQ/L | SODIUM [2]: 148.3 MEQ/L | TOTAL BILIRUBIN [2]: 0.2 mg/dL | TOTAL PROTEIN [2]: 6.23 G/DL | URIC ACID [2]: 1.53 mg/dL | ABSOLUTE BASOPHIL [3]: 0 CELLS/uL | ABSOLUTE EOSINOPHIL [3]: 0 CELLS/uL | ABSOLUTE LYMPHOCYTE [3]: 11911.67 CELLS/uL | ABSOLUTE MONOCYTE [3]: 70.67 CELLS/uL | ABSOLUTE SEGMENTED NEUTROPHIL [3]: 1384.33 CELLS/uL | BASOPHIL [3]: 0% | EOSINOPHIL [3]: 0% | ERYTHROCYTE COUNT [3]: 5.18 x10E6/uL | HEMATOCRIT [3]: 32.77% | HEMOGLOBIN [3]: 13.1 G/DL | LEUKOCYTE COUNT [3]: 13.37 x10E3/uL | LYMPHOCYTE [3]: 89.33% | MEAN CORPUSCULAR HEMOGLOBIN [3]: 25.27 pg | MEAN CORPUSCULAR HEMOGLOBIN CONCENTRATION [3]: 39.97 G/DL | MEAN CORPUSCULAR VOLUME [3]: 63.27 fL | MONOCYTE [3]: 0.67% | NEUTROPHIL [3]: 10% | NUCLEATED RED BLOOD CELLS [3]: 0 /100WBC | PLATELET COUNT [3]: 1123.33 x10E3/uL | ALANINE AMINOTRANSFERASE [3]: 37.67 u/L | ALBUMIN [3]: 4.03 G/DL | ALKALINE PHOSPHATASE [3]: 334 u/L | ASPARTATE AMINOTRANSFERASE [3]: 76.33 u/L | BLOOD UREA NITROGEN [3]: 15.33 mg/dL | CARBON DIOXIDE [3]: 32.33 mmol/L | CHLORIDE [3]: 101.67 MEQ/L | CHOLESTEROL [3]: 63.67 mg/dL | CREATINE PHOSPHOKINASE [3]: 214.33 u/L | CREATININE [3]: 0.17 mg/dL | GLUCOSE [3]: 146.33 mg/dL | LACTATE DEHYDROGENASE [3]: 137.67 u/L | LIPASE [3]: 9 u/L | PHOSPHORUS [3]: 11.5 mg/dL | POTASSIUM [3]: 6.65 MEQ/L | SODIUM [3]: 144.3 MEQ/L | TOTAL BILIRUBIN [3]: 0.2 mg/dL | TOTAL PROTEIN [3]: 5.63 G/DL | URIC ACID [3]: 1.4 mg/dL | ABSOLUTE BASOPHIL [4]: 0 CELLS/uL | ABSOLUTE EOSINOPHIL [4]: 0 CELLS/uL | ABSOLUTE LYMPHOCYTE [4]: 16297.33 CELLS/uL | ABSOLUTE MONOCYTE [4]: 372.33 CELLS/uL | ABSOLUTE SEGMENTED NEUTROPHIL [4]: 863.67 CELLS/uL | BASOPHIL [4]: 0% | EOSINOPHIL [4]: 0% | ERYTHROCYTE COUNT [4]: 5.49 x10E6/uL | HEMATOCRIT [4]: 35.9% | HEMOGLOBIN [4]: 14.2 G/DL | LEUKOCYTE COUNT [4]: 17.53 x10E3/uL | LYMPHOCYTE [4]: 93.33% | MEAN CORPUSCULAR HEMOGLOBIN [4]: 25.9 pg | MEAN CORPUSCULAR HEMOGLOBIN CONCENTRATION [4]: 39.53 G/DL | MEAN CORPUSCULAR VOLUME [4]: 65.47 fL | MONOCYTE [4]: 2% | NEUTROPHIL [4]: 4.67% | NUCLEATED RED BLOOD CELLS [4]: 0.33 /100WBC | PLATELET COUNT [4]: 1195.67 x10E3/uL | ALANINE AMINOTRANSFERASE [4]: 48 u/L | ALBUMIN [4]: 4.23 G/DL | ALKALINE PHOSPHATASE [4]: 355.33 u/L | ASPARTATE AMINOTRANSFERASE [4]: 75.33 u/L | BLOOD UREA NITROGEN [4]: 14.67 mg/dL | CARBON DIOXIDE [4]: 33.67 mmol/L | CHLORIDE [4]: 99.67 MEQ/L | CHOLESTEROL [4]: 70.67 mg/dL | CREATINE PHOSPHOKINASE [4]: 260 u/L | CREATININE [4]: 0.26 mg/dL | GLUCOSE [4]: 135.67 mg/dL | LACTATE DEHYDROGENASE [4]: 215 u/L | LIPASE [4]: 10.67 u/L | PHOSPHORUS [4]: 11.83 mg/dL | POTASSIUM [4]: 6.61 MEQ/L | SODIUM [4]: 144.07 MEQ/L | TOTAL BILIRUBIN [4]: 0.27 mg/dL | TOTAL PROTEIN [4]: 6.03 G/DL | URIC ACID [4]: 1.37 mg/dL
